IC50 and Emax data for 42 compounds are collected here from patent publication US20120171126A1, “NOVEL [3,2-c] HETEROARYL STEROIDS AS GLUCOCORTICOID RECEPTOR AGONISTS COMPOSITIONS AND USES THEREOF” (priority 2009, published 2012).

This assay relates to IL-8. Kind of assay: Glucocorticoid transrepression assay, IL-8 inhibition (TR). It is filed as cell-based. To be noted: Homo sapiens, NCl-H292 cells, TNFα 10 ng/ml; for Emax: read-out: IL-8 inhibition (TR) Emax % inhibition. Here is the method: Human Lung epithelial cell line NCl-H292 cells were dissociated from stock flask using 0.05% trypsin/0.53 mM EDTA. Cells were suspended in complete medium and counted. Cells were plated in 96-well flat-bottom plates at 20K cells /well in 0.2 ml/well. Plates were incubated for 24-48 hours until cells were between 75-90% confluent. Medium was aspirated and replaced with medium containing various concentrations of steroids or antagonists. After 1 hour incubation at 37°, TNFα (10 ng/ml final concentration in 0.2 ml) was added and the cells incubated overnight. Control wells with and without TNF were included on each plate, as well as wells with TNF in addition to a maximum (10 μM) concentration of dexamethasone. The cell culture medium was sampled and IL-6 and IL-8 cytokine production was measured using the MSD Multi-Spot immunoassay.

As usually defined, the IC50 is the point on the concentration scale where inhibition reaches its midpoint. A high value points to weaker potency. By Emax is commonly meant the size of the effect at its maximum, as opposed to the concentration needed.

Each structure is given as a SMILES string. Where two headings read alike, the source gives them in different places. Some results are limits rather than exact numbers.

For `Cn1c(NC(=O)[C@@]2(O)CCC3C4CCC5=Cc6c(cnn6-c6ccc(F)cc6)CC5(C)C4[C@@H](O)CC32C)nc2ccccc21` (stereo partly shown) [Compound 21], where the note is “Table 2”, the IC50 lay in the range of 0.06 to 20 nM and the Emax is greater than 80%.

Take `Cc1ccnc(SCC(=O)[C@@]2(O)CCC3C4CCC5=Cc6c(cnn6C)CC5(C)C4[C@@H](O)CC32C)n1` (stereo partly shown) [Compound 31]: the Emax (Table 1) was less than 60%.

`Cn1c(SCC(=O)[C@@]2(O)CCC3C4CCC5=Cc6c(cnn6-c6ccccc6)CC5(C)C4[C@@H](O)CC32C)nc2ccccc21` (stereo partly shown) [Compound 14]: under “Table 1”, the concentration for half-maximal inhibition (IC50) lay within 0.06 to 20 nM and the Emax was greater than 80%.

Take `C[C@]12Cc3cnn(-c4ccc(F)cc4)c3C=C1CCC1C2[C@@H](O)C[C@@]2(C)C1CC[C@]2(O)C(=O)NCc1ccc2nccn2c1` (stereo partly shown) [Compound 10]: for the setting “Table 2”, the IC50 lay within 0.06 to 20 nM and the Emax was greater than 80%.

With `CC12Cc3cnn(-c4ccc(F)cc4)c3C=C1CCC1C2[C@@H](O)CC2(C)C1CC[C@]2(O)C(=O)Nc1nc2cccnc2s1` (stereo partly shown) [Compound 1], where the note is “Table 2”, the IC50 lay within 0.06 to 20 nM and the Emax is greater than 80%.

With `C[C@@H](NC(=O)[C@@]1(O)CCC2C3CCC4=Cc5c(cnn5-c5ccc(F)cc5)C[C@]4(C)C3[C@@H](O)C[C@@]21C)c1cccc2ccccc12` (stereo partly shown) [Compound 7], under “Table 2”, the IC50 lay within 0.06 to 20 nM and the Emax is greater than 80%.

`Cn1nnnc1SCC(=O)[C@@]1(O)CCC2C3CCC4=Cc5c(cnn5-c5ccc(F)cc5)CC4(C)C3[C@@H](O)CC21C` (stereo partly shown) [Compound 100]: where the note is “Table 1”, the IC50 was 0.06 to 20 nM and the Emax is greater than 80%.

Regarding `C[C@]12Cc3cnn(-c4ccc(F)cc4)c3C=C1CCC1C2[C@@H](O)C[C@@]2(C)C1CC[C@]2(O)C(=O)CN1CCN(c2ccccn2)CC1` (stereo partly shown) [Compound 3], where the note is “Table 5”, the IC50 was in the range of 0.06 to 20 nM and the Emax is greater than 80%.

In the case of `COc1ccc(-n2ncc3c2C=C2CCC4C([C@@H](O)CC5(C)C4CC[C@]5(O)C(=O)CSc4nc5ccccc5n4C)C2(C)C3)cc1` (stereo partly shown) [Compound 86], under “Table 1”, the IC50 fell in the range of 66 to 400 nM and the Emax was in the range of 70 to 80%.

Regarding `C[C@@H](NC(=O)[C@@]1(O)CCC2C3CCC4=Cc5c(cnn5-c5ccc(F)cc5)C[C@]4(C)C3[C@@H](O)C[C@@]21C)c1ccccc1` (stereo partly shown) [Compound 6], where the note is “Table 2”, the IC50 lay within 0.06 to 20 nM and the Emax is greater than 80%.

`Cn1ncc2c1C=C1CCC3C([C@@H](O)CC4(C)C3CC[C@]4(O)C(=O)CSc3nc4cccnc4s3)C1(C)C2` (stereo partly shown) [Compound 28]: under “Table 1”, the maximal effect (Emax) is less than 60%.

`CC12Cc3cnn(-c4ccc(F)cc4)c3C=C1CCC1C2[C@@H](O)CC2(C)C1CC[C@]2(OC(=O)c1ccco1)C(=O)CSc1nc2ncccc2o1` (stereo partly shown) [Compound 99]: where the note is “Table 1”, the IC50 was in the range of 0.06 to 20 nM and the maximal effect (Emax) is greater than 80%.

Consider `CC12Cc3cnn(-c4ccc(F)cc4)c3C=C1CCC1C2[C@@H](O)CC2(C)C1CC[C@]2(O)C(=O)N[C@@H](CO)Cc1ccc2ccccc2c1` (stereo partly shown) [Compound 22], for which, where the note is “Table 2”, the IC50 lay within 0.06 to 20 nM and the Emax is greater than 80%.

For `Cc1ccccc1-n1ncc2c1C=C1CCC3C([C@@H](O)CC4(C)C3CC[C@]4(O)C(=O)CSc3nc4ccccc4n3C)C1(C)C2` (stereo partly shown) [Compound 77], the Emax (Table 1) is less than 60%.

Consider `Cn1c(OCC(=O)[C@@]2(O)CCC3C4CCC5=Cc6c(cnn6-c6ccccc6)CC5(C)C4[C@@H](O)CC32C)nc2ccccc21` (stereo partly shown) [Compound 119], for which, where the note is “Table 1”, the IC50 was in the range of 0.06 to 20 nM and the Emax was greater than 80%.

On to `C[C@]12Cc3cnoc3C=C1CCC1C2[C@@H](O)C[C@@]2(C)C1CC[C@]2(O)C(=O)CSc1cnc2ccccc2n1` (stereo partly shown) [Compound 2], for which, under “Table 3”, the Emax is less than 60%.

As to `CC12Cc3cnn(-c4ccc(F)cc4)c3C=C1CCC1C2[C@@H](O)CC2(C)C1CC[C@]2(O)C(=O)CSc1nc(-c2ccccc2)c(-c2ccccc2)o1` (stereo partly shown) [Compound 96], where the note is “Table 1”, the IC50 lay in the range of 66 to 400 nM and the Emax is greater than 80%.

As to `C[C@]12Cc3cnoc3C=C1CCC1C2[C@@H](O)C[C@@]2(C)C1CC[C@]2(O)C(=O)CSc1ccc2ccccc2n1` (stereo partly shown) [Compound 4], the Emax (Table 3) was less than 60%.

Take `CC12Cc3cnn(-c4ccc(F)cc4)c3C=C1CCC1C2[C@@H](O)CC2(C)C1CC[C@]2(O)C(=O)CSc1nccc2ccccc12` (stereo partly shown) [Compound 11]: under “Table 1”, the IC50 fell in the range of 0.06 to 20 nM and the Emax was greater than 80%.

With `Cn1c(SCC(=O)[C@@]2(O)CCC3C4CCC5=Cc6oncc6C[C@]5(C)C4[C@@H](O)C[C@@]32C)nc2ccccc21` (stereo partly shown) [Compound 5], for the setting “Table 3”, the IC50 was in the range of 401 to 1000 nM and the Emax was less than 60%.

Take `C[C@]12Cc3cnoc3C=C1CCC1C2[C@@H](O)C[C@@]2(C)C1CC[C@]2(O)C(=O)CSc1ccccn1` (stereo partly shown) [Compound 3]: the Emax (Table 3) was less than 60%.

In the case of `C[C@H](NC(=O)[C@@]1(OC(=O)c2ccco2)CCC2C3CCC4=Cc5c(cnn5-c5ccc(F)cc5)CC4(C)C3[C@@H](O)CC21C)c1cccc2ccccc12` (stereo partly shown) [Compound 15], under “Table 2”, the IC50 was in the range of 0.06 to 20 nM and the Emax is greater than 80%.

Take `Cc1cc(C)nc(SCC(=O)[C@@]2(O)CCC3C4CCC5=Cc6c(cnn6-c6ccc(F)cc6)CC5(C)C4[C@@H](O)CC32C)n1` (stereo partly shown) [Compound 101]: where the note is “Table 1”, the IC50 lay in the range of 0.06 to 20 nM and the Emax is greater than 80%.

As for `CC12Cc3cnn(-c4ccc(F)cc4)c3C=C1CCC1C2[C@@H](O)CC2(C)C1CC[C@]2(O)C(=O)N[C@H](CO)Cc1ccccc1` (stereo partly shown) [Compound 24], for the setting “Table 2”, the IC50 was 0.06 to 20 nM and the Emax was greater than 80%.

Take `CC12Cc3cnn(-c4ccccc4)c3C=C1CCC1C2[C@@H](O)CC2(C)C1CC[C@]2(O)C(=O)COc1ccc2ccccc2c1` (stereo partly shown) [Compound 117]: under “Table 1”, the IC50 lay within 0.06 to 20 nM and the Emax was greater than 80%.

Consider `CC12Cc3cnn(-c4ccc(F)cc4)c3C=C1CCC1C2[C@@H](O)CC2(C)C1CC[C@]2(O)C(=O)NCc1cn(Cc2ccccc2)nn1` (stereo partly shown) [Compound 14], for which, for the setting “Table 2”, the IC50 lay within 0.06 to 20 nM and the Emax was greater than 80%.

Consider `CC12Cc3cn(-c4ccccc4)nc3C=C1CCC1C2[C@@H](O)CC2(C)C1CC[C@]2(O)C(=O)COc1nc2ccccc2s1` (stereo partly shown) [Compound 121], for which the Emax (Table 1) was less than 60%.

`CC12Cc3cnn(-c4ccc(F)cc4)c3C=C1CCC1C2[C@@H](O)CC2(C)C1CC[C@]2(O)C(=O)Cn1cc(Cc2ccccc2)nn1` (stereo partly shown) [Compound 2]: under “Table 6”, the IC50 is 0.06 to 20 nM and the Emax is greater than 80%.

As to `CC12Cc3cnn(-c4ccc(F)cc4)c3C=C1CCC1C2[C@@H](O)CC2(C)C1CC[C@]2(O)C(=O)COc1nccc2ccccc12` (stereo partly shown) [Compound 114], where the note is “Table 1”, the IC50 fell in the range of 0.06 to 20 nM and the Emax was greater than 80%.

Regarding `C[C@]12Cc3cnn(-c4ccc(F)cc4)c3C=C1CCC1C2[C@@H](O)C[C@@]2(C)C1CC[C@]2(O)C(=O)CN1CCN(c2nc3ccccc3o2)CC1` (stereo partly shown) [Compound 1], under “Table 5”, the IC50 is 0.06 to 20 nM and the Emax was greater than 80%.

On to `CC12Cc3cnn(CCC#N)c3C=C1CCC1C2[C@@H](O)CC2(C)C1CC[C@]2(O)C(=O)CSc1nc2ccccc2s1` (stereo partly shown) [Compound 49], for which the Emax (Table 1) is less than 60%.

As for `CC12Cc3cnn(C(C)(C)C)c3C=C1CCC1C2[C@@H](O)CC2(C)C1CC[C@]2(O)C(=O)CSc1ccccn1` (stereo partly shown) [Compound 66], where the note is “Table 1”, the Emax was less than 60%.

Consider `CC12Cc3cnn(-c4nc5ccccc5[nH]4)c3C=C1CCC1C2[C@@H](O)CC2(C)C1CC[C@]2(O)C(=O)CSc1nc2ccccc2s1` (stereo partly shown) [Compound 83], for which the Emax (Table 1) is less than 60%.

As for `Cn1ncc2c1C=C1CCC3C([C@@H](O)CC4(C)C3CC[C@]4(O)C(=O)CSc3ncccn3)C1(C)C2` (stereo partly shown) [Compound 26], the Emax (Table 1) was less than 60%.

Regarding `CC12Cc3cnn(-c4ccccc4)c3C=C1CCC1C2[C@@H](O)CC2(C)C1CC[C@]2(O)C(=O)COc1ccccn1` (stereo partly shown) [Compound 122], for the setting “Table 1”, the IC50 was 0.06 to 20 nM and the maximal response (Emax) was greater than 80%.

Turning to `C[C@@H](NC(=O)[C@@]1(O)CCC2C3CCC4=Cc5c(cnn5-c5ccc(F)cc5)C[C@]4(C)C3[C@@H](O)C[C@@]21C)c1ccccn1` (stereo partly shown) [Compound 9], under “Table 2”, the IC50 fell in the range of 0.06 to 20 nM and the Emax was greater than 80%.

As for `COc1ccc(-n2ncc3c2C=C2CCC4C([C@@H](O)CC5(C)C4CC[C@]5(O)C(=O)CSc4nc5ccccc5s4)C2(C)C3)cc1` (stereo partly shown) [Compound 85], for the setting “Table 1”, the IC50 was 66 to 400 nM and the Emax lay within 70 to 80%.

`CC12Cc3cnn(CCC#N)c3C=C1CCC1C2[C@@H](O)CC2(C)C1CC[C@]2(O)C(=O)CSc1nc2cccnc2s1` (stereo partly shown) [Compound 56]: the Emax (Table 1) was less than 60%.

Consider `C#CCN1CCN(CC(=O)[C@@]2(O)CCC3C4CCC5=Cc6c(cnn6-c6ccc(F)cc6)C[C@]5(C)C4[C@@H](O)C[C@@]32C)CC1` (stereo partly shown) [Compound 2], for which the Emax (Table 5) is less than 60%.

`CC(C)(C)c1ccc(-n2ncc3c2C=C2CCC4C([C@@H](O)CC5(C)C4CC[C@]5(O)C(=O)CSc4ccccn4)C2(C)C3)cc1` (stereo partly shown) [Compound 93]: the Emax (Table 1) is less than 60%.

With `CC12Cc3cnn(-c4ccc(F)cc4)c3C=C1CCC1C2[C@@H](O)CC2(C)C1CC[C@]2(O)C(=O)CSc1ncccn1` (stereo partly shown) [Compound 7], under “Table 1”, the IC50 lay in the range of 0.06 to 20 nM and the Emax was greater than 80%.

With `CC12Cc3cnn(-c4ccccc4)c3C=C1CCC1C2[C@@H](O)CC2(C)C1CC[C@]2(O)C(=O)COc1nc2ccccc2[nH]1` (stereo partly shown) [Compound 118], under “Table 1”, the IC50 was 0.06 to 20 nM and the Emax was greater than 80%.
